Reference: patent US6756382B2, “Amide substituted imidazoquinolines” (3M Innovative Properties Company, priority 1999, dated 2004)
Where a name gives a salt, the structure may show the parent alone.

Key:
[1] = test system: tumor necrosis factor (α); experiment: Cytokine induction in human cells: tumor necrosis factor (α) secreted by PBMCs, ELISA; assay type: cell-based; conditions: PBMC, incubated 18 to 24 hours, TNF determined by ELISA, read-out: Lowest Effective Concentration (μM) Tumor Necrosis Factor
From the text: (§1) An in vitro human blood cell system was used to assess cytokine induction by compounds of the invention. Activity is based on the measurement of interferon and tumor necrosis factor (α) (IFN and TNF, respectively) secreted into culture media as described by Testerman et. al. In “Cytokine Induction by the Immunomodulators Imiquimod and S-27609”, Journal of Leukocyte Biology, 58, 365-372 (September, 1995).
(§2) Whole blood is collected by venipuncture into EDTA vacutainer tubes from healthy human donors. Peripheral blood mononuclear cells (PBMCs) are separated from whole blood by density gradient centrifugation using Histopaque®-1077 (Sigma Chemicals, St. Louis, Mo.). The PBMCs are suspended at 3-4×10^6 cells/mL in RPMI 1640 medium containing 10% fetal bovine serum, 2 mM L-glutamine and 1% penicillin/streptomycin solution (RPMI complete). The PBMC suspension is added to 48 well flat bottom sterile tissue culture plates (Costar, Cambridge, Mass. or Becton Dickinson Labware, Lincoln Park, N.J.) containing an equal volume of RPMI complete media containing test compound.
(§3) The compounds are solubilized in dimethyl sulfoxide (DMSO). The DMSO concentration should not exceed a final concentration of 1% for addition to the culture wells.
(§4) The solution of test compound is added at 60 μM to the first well containing RPMI complete and serial (three fold or ten fold) dilutions are made. The PBMC suspension is then added to the wells in an equal volume, bringing the test compound concentrations to the desired range. The final concentration of PBMC suspension is 1.5-2×10^6 cells/mL. The plates are covered with sterile plastic lids, mixed gently and then incubated for 18 to 24 hours at 37° C. in a 5% carbon dioxide atmosphere.
(§5) Following incubation the plates are centrifuged for 5-10 minutes at 1000 rpm (˜200×g) at 4° C. The cell culture supernatant is removed with a sterile polypropylene pipet and transferred to sterile polypropylene tubes. Samples are maintained at −30 to −70° C. until analysis. The samples are analyzed for interferon (α) by either ELISA or bioassay and for tumor necrosis factor (α) by ELISA.
Tumor necrosis factor (α) (TNF)concentration is determined using ELISA kits available from Genzyme, Cambridge, Mass.; R&D Systems, Minneapolis, Minn.; or Pharmingen, San Diego, Calif.
(§6) The table below lists the lowest concentration found to induce interferon and the lowest concentration found to induce tumor necrosis factor for each compound. […] Unless otherwise indicated, the interferon biosynthesis was determined by ELISA.

[2] = test system: interferon (α); experiment: Cytokine induction in human cells: interferon secreted by PBMCs, ELISA; assay type: cell-based; conditions: PBMC, incubated 18 to 24 hours, interferon determined by ELISA, read-out: Lowest Effective Concentration (μM) Interferon
From the text: as §1, §2, §3, §4, §5
Interferon (α) concentration is determined by ELISA using a Human Multi-Species kit from PBL Biomedical Laboratories, New Brunswick, N.J.
as §6

Row | melting point | Structure (SMILES) | minimal effective concentration [1] [µM] | minimal effective concentration [2] [µM]
1 | 199 to 200 °C | COCCc1nc2c(N)nc3ccccc3c2n1CCCCNC(=O)c1cc2ccccc2cn1 [Example 181, N-{4-[4-amino-2-(2-methoxyethyl)-1H-imidazo[4,5-c]quinolin-1-yl]butyl}isoquinoline-3-carboxamide] | 1.11 | 0.01
2 | 124 to 126 °C | CCCCc1nc2c(N)nc3ccccc3c2n1CCNC(=O)CCCCC1SCC2NC(=O)NC21 (centres unmarked) [Example 28, N^1-[2-(4-Amino-2-butyl-1H-imidazo[4,5-c]quinolin-1-yl)ethyl]-5-(2-oxoperhydrothieno[3,4-d]imidazol-4-yl)pentanamide] | > 30 | 0.12
3 | 163 to 164 °C | CCCCC(CC)C(=O)NCCCCn1cnc2c(N)nc3ccccc3c21 (centres unmarked) [Example 36, N^1-[4-(4-Amino-1H-imidazo[4,5-c]quinolin-1-yl)butyl]-2-ethylhexanamide] | 10 | 1.11
4 | 93 to 94 °C | Nc1nc2ccccc2c2c1ncn2CCCCNC(=O)c1ccccc1Oc1ccccc1 [Example 14, N^1-[4-(4-Amino-1H-imidazo[4,5-c]quinolin-1-yl)butyl]-2-phenoxybenzamide] | > 30 | 3.33
5 | 173 to 174 °C | CCCc1nc2c(N)nc3ccccc3c2n1CCCCNC(=O)c1ccccc1 [Example 3, N^1-[4-(4-Amino-2-propyl-1H-imidazo[4,5-c]quinolin-1-yl)butyl]benzamide] | 1.11 | 0.37
6 | 172 to 173 °C | CC(C)Cc1ccc(C(C)C(=O)NCCCCn2cnc3c(N)nc4ccccc4c32)cc1 (centres unmarked) [Example 46, N^1-[4-(4-Amino-1 H-imidazo[4,5-c]quinolin-1-yl)butyl]-2-(4-isobutylphenyl)propanamide] | 10 | > 30
7 | 198 to 198.5 °C | COCCc1nc2c(N)nc3ccccc3c2n1CCCNC(=O)c1cc2ccccc2cn1 [Example 192, N-{3-[4-amino-2-(2-methoxyethyl)-1H-imidazo[4,5-c]quinolin-1-yl]propyl}isoquinoline-3-carboxamide] | 0.37 | 0.12
8 | 133.4 to 137.5 °C | COCCc1nc2c(N)nc3ccccc3c2n1CCCCCCCCNC(=O)c1ccccc1 [Example 187, N-{8-[4-amino-2-(2-methoxyethyl)-1H-imidazo[4,5-c]quinolin-1-yl]octyl}benzamide] | 0.01 | 0.01
9 | 257 °C (dec.) | Nc1nc2ccccc2c2c1ncn2CCCCNC(=O)c1ccc2ccccc2c1 [Example 43, N^2-[4-(4-Amino-1H-imidazo[4,5-c]quinolin-1-yl)butyl]-2-naphthamide] | > 30 | 0.12
10 | 110 to 120 °C | Cc1nc2c(N)nc3ccccc3c2n1CCCCCNC(=O)c1ccccc1 [Example 9, N^1-[5-(4-Amino-2-methyl-1H-imidazo[4,5-c]quinolin-1-yl)pentyl]benzamide] | 3.33 | 0.37
11 | 103 to 125 °C | COCCc1nc2c(N)nc3ccccc3c2n1CC(C)(C)CNC(=O)c1ccccc1 [Example 190, N-{3-[4-amino-2-(2-methoxyethyl)-1H-imidazo[4,5-c]quinolin-1-yl]-2,2-dimethylpropyl}benzamide] | 0.01 | 0.01
12 | 105 to 107 °C | Nc1nc2ccccc2c2c1ncn2CCCCNC(=O)c1cccc(Oc2ccccc2)c1 [Example 39, N^1-[4-(4-Amino-1H-imidazo[4,5-c]quinolin-1-yl)butyl]-3-phenoxybenzamide] | > 30 | 3.33
13 | 150 to 153 °C | Nc1nc2ccccc2c2c1ncn2CCCCNC(=O)c1ccc(Cn2c(N3CCCC3)nc3ccccc32)cc1 [Example 8, N^1-[4-(4-Amino-1H-imidazo[4,5-c]quinolin-1-yl)butyl]-4-[(2-tetrahydro-1H -1-pyrrolyl-1H-benzo[d]imidazol-1-yl)methyl]benzamide] | > 30 | 0.04
14 | 295 °C | Nc1nc2ccccc2c2c1ncn2CCNC(=O)c1ccccc1 [Example 13, N^1-[2-(4-Amino-1H-imidazo[4,5-c]quinolin-1-yl)ethyl]benzamide] | 3.33 | 1.11
15 | 200 to 201 °C (dec.) | N#Cc1cccc(C(=O)NCCCCn2cnc3c(N)nc4ccccc4c32)c1 [Example 33, N^1-[4-(4-Amino-1H-imidazo[4,5-c]quinolin-1-yl)butyl]-3-cyanobenzamide] | > 30 | 0.37
16 | 114 to 116 °C | COCCc1nc2c(N)nc3ccccc3c2n1CCCCNC(=O)c1cnc2ccccc2c1 [Example 182, N-{4-[4-amino-2-(2-methoxyethyl)-1H-imidazo[4,5-c]quinolin-1-yl]butyl}quinoline-3-carboxamide] | 0.01 | 0.01
17 | 148 to 150 °C | Nc1nc2ccccc2c2c1ncn2CCCCNC(=O)CCc1ccccc1 [Example 16, N^1-[4-(4-Amino-1H-imidazo[4,5-c]quinolin-1-yl)butyl]-3-phenylpropanamide] | 30 | 1.11
18 | 85 to 87 °C | COCCc1nc2c(N)nc3ccccc3c2n1CCCCNC(=O)c1cnc2ccccc2n1 [Example 183, N-{4-[4-amino-2-(2-methoxyethyl)-1H-imidazo [4,5-c]quinolin-1-yl]butyl}quinoxaline-2-carboxamide] | 0.04 | 0.01
19 | 147.7 to 148.8 °C | CCCC(=O)NCCCCn1c(CC)nc2c(N)nc3ccccc3c21 [Example 200, N-[4-(4-amino-2-ethyl-1H-imidazo[4,5-c]quinolin-1-yl)butyl]butanamide] | – | –
20 | 171 to 175 °C | CCOCc1nc2c(N)nc3ccccc3c2n1CCNC(=O)CCCCC1SCC2NC(=O)NC21 (centres unmarked) (as salt: trifluoroacetate) [Example 29, N^1-[2-(4-Amino-2-(ethoxymethyl)-1H-imidazo[4,5-c]quinolin-1-yl)ethyl]-5-(2-oxoperhydrothieno[3,4-d]imidazol-4-yl)pentanamide Ditrifluoroacetate] | – | –
21 | 81.1 to 83.9 °C | Nc1nc2ccccc2c2c1nc(-c1ccccc1)n2CCCCNC(=O)c1ccc2ccccc2n1 [Example 67, N^2-[4-(4-Amino-2-phenyl-1H-imidazo[4,5-c]quinolin-1-yl)butyl]-2-quinolinecarboxamide] | – | –
22 | 213 to 213.7 °C | Nc1nc2ccccc2c2c1ncn2CCCCNC(=O)c1ccncc1 [Example 48, N^4-[4-(4-Amino-1H-imidazo[4,5-c]quinolin-1-yl)butyl]isonicotinamide] | – | –
23 | 159.7 to 160.7 °C | Cc1nc2c(N)nc3ccccc3c2n1CCCCNC(=O)C(C)C [Example 202, N-[4-(4-amino-2-methyl-1H-imidazo[4,5-c]quinolin-1-yl)butyl]-2-methylpropanamide] | – | –
24 | 254 to 256 °C | Cl.Nc1nc2ccccc2c2c1ncn2CCCCNC(=O)c1ccccc1.O (hydrate or solvate) | – | –
25 | 158 to 161 °C | CCCCCSc1ncccc1C(=O)NCCCCn1cnc2c(N)nc3ccccc3c21 [Example 51, N^3-[4-(4-Amino-1H-imidazo[4,5-c]quinolin-1-yl)butyl]-2-(pentylsulfanyl)nicotinamide] | – | –
26 | 76 to 78 °C | COCCc1nc2c(N)nc3ccccc3c2n1CCCCNC(=O)c1cncc(C#Cc2ccccc2)c1 [Example 65, N^5-{4-[4-Amino-2-(2-methoxyethyl)-1H-imidazo[4,5-c]quinolin-1-yl]butyl}-5-(2-phenyl-1-ethynyl)nicotinamide] | – | –
